Results published in patent US20040034216A1, “3-Nitrogen-6,7-dioxygen steroids and uses related thereto” (priority 2003, published 2004).
Structures can show the parent of a compound that is named as a salt. Where two headings read alike, the source gives them in different places.

Assays:
Jurkat clone E6.1 cells = assay: Antigen-induced calcium flux in anti-CD3 stimulated Jurkat cells (Fura 2AM); format: cell-based; conditions: anti-CD3 mAb stimulated Jurkat clone E6.1 cells; for inhibition at 20 µM: Homo sapiens
Source text: Elevation of cytoplasmic calcium concentration is a common and crucial event which follows the activation of many types of cell surface receptors. Increases in intracellular calcium that occur following agonist activation of inositol lipid hydrolysis are the results of calcium release from the endoplasmic reticulum and the influx of calcium through the plasma membrane. Increases in cytosolic calcium concentration are involved in many important cellular responses in the inflammatory process including adhesion, motility, gene expression, proliferation, and degranulation. Changes in intracellular calcium concentrations can affect both short and long term cellular responses. An assay method to evaluate a test compound's impact on calcium flux is provided as follows.
The resulting supernatants are discarded and each pellet is washed in 10 mL HBSS. Cell suspensions are accumulated and centrifuged for 5 minutes at 900 RPM to form a cell pellet. The resulting supernatant is discarded and the pellet is resuspended in HBSS at 1×10^7cells/mL. The cell suspension is transferred to a 20 mm petri dish and incubated at 37° C., 5% CO2 for 20 minutes.
One volume of Fura 2AM is mixed to one volume of detergent Pluronic F127. Cells are labeled with 4 μL of probe solution to each mL of cell suspension. The petri dish is wrapped in aluminum foil to protect from light and placed on a plate shaker for 30 minutes at room temperature.
The following steps are done in the laminar flow hood with the fluorescent lights turned off. The petri dish is removed from the shaker and the labeled cell suspension is transferred to a 15 mL conical tube and washed twice with HBSS as above. The cell pellet is resuspended in 12 mL HBSS and left wrapped in foil for 30 minutes at room temperature. The labeled cell suspension is aliquoted (100 μL/well) into a Dynex 96 well white opaque tissue culture plate. […] Selected compounds were tested for dose related activity. Test samples and activator (anti-CD3 mAb at final concentration of 4 μg/mL, PharMingen) are added manually (50 μL), such that the minimum time to acquire the first data point after stimulation is approximately 30 seconds. The calcium influx response to anti-CD3 mAb is measured as an “end point” assay. The entire plate is read in 100 seconds using a kinetic of 1 second per well.
The plate is read before the addition of anti-CD3 to monitor non-specific effect of samples/drugs. Fluorescence emission is measured at 510 nm with excitation alternating between 340 and 380 every second using an excitation/emission filter pair. Data from these dual wavelengths are represented as a ratio of 2 excitations wavelengths. This ratio is independent of intracellular dye and cell concentrations, enabling real comparison between experiments.

[1] = test system: sensitized Brown Norway rats; assay: Ovalbumin-induced accumulation of inflammatory cells in lung lavage fluid (allergen-induced lung inflammation); format: in vivo, rat; conditions: p.o., corn oil, lung lavage fluid; for % inhibition of eosinophils: 5 mg/kg/day for 4 days, relative to control animals
Procedure: The ability of a compound to inhibit the allergen-induced accumulation of inflammatory cells such as eosinophils and neutrophils in the lavage fluid obtained from sensitized animals is indicative of that compound's anti-asthma activity. […] The test is conducted as follows.
Male Brown Norway rats are sensitized to ovalbumin by single intraperitoneal injection of 1 mg ovalbumin adsorbed to 100 mg […] (alum) in 1 ml sterile saline (saline control rats receive only sterile saline) on day 1, and allowed to sensitize until day 21. […] Rats are challenged with 0.5% ovalbumin in saline generated using a Devillbis nebulizer for 60 min on day 21.
Forty-eight hrs after challenge, animals are sacrificed with an overdose of intraperitoneally-delivered sodium pentobarbitol and the lungs are lavaged with cold 2×7 ml phosphate buffered saline. The recovered lavage fluid is placed on ice. The bronchoalveolar lavage fluid is centrifuged and the supernatant removed. The pellet is resuspended in phosphate buffered saline at 4° C. Cytospins are prepared and stained for differentiation and enumeration of cell types.
Test compound was administered in 300 μl corn oil (Tables 7 and 8) or water (Table 9), which were used as vehicles. Control animals received 300 μl corn oil or water alone, i.e., no drug. […] A negative value in Table 7, 8, or 9 indicates an exacerbation of the effect over the control animal.

[2] = test system: Rat Mast Cell Line (RBL-2H3); assay: Antigen-induced release of hexosaminidase from a rat mast cell line (RBL-2H3); format: cell-based; conditions: Rattus norvegicus, RBL-2H3, inhibition of antigen (DNP-HSA)-induced hexosaminidase release, tested at 0.3, 3, 10 and 30 μM, read-out: Hex IC50
Procedure: The anti-allergic effects of a compound of the present invention was evaluated by measuring its effect on antigen-induced secretion of hexosaminidase from a passively sensitized rat mast cell line. The ability of a test compound to inhibit the release of mast cell granule contents, e.g., histamine and hexosaminidase, is indicative of the anti-allergy and/or anti-asthma activity of the compound. Hexosaminidase is released from the mast cell granule along with histamine and other mediators during antigen challenge. The test is performed as follows.
RBL-2H3 cells are grown in culture and passively sensitized for 1 hour at 37° C. to dinitrophenol (DNP) using anti-human-DNP (IgE). Cells are incubated with test compound for 30 minutes at 37° C. and stimulated with 0.5 μg/ml DNP-HSA (antigen) for 30 minutes. Aliquots of the supernatant are removed and used to measure the amount of hexosaminidase released during challenge with the antigen. The amount of hexosaminidase present in the supernatant is determined colorimetrically by monitoring the enzymatic metabolism of p-nitrophenyl-N-acetyl-β-D-glucosaminide (p-NAG) over a period of 60 minutes at 405 nm. The effect of each test compound is determined as a percentage of the antigen-induced response (minus background release) obtained in the presence of DMSO alone. These values are used to determine the degrees of inhibition of antigen-induced hexosaminidase release from the cells.

[3] = Jurkat, read-out: Calcium (% inhibition at 20 μM), 20 μM

SMILES | % inhibition of eosinophils [1] [%] | IC50 [2] [µM] | inhibition at 20 µM (Jurkat clone E6.1 cells; [3]) [%] | further results
CCC1(C)CCC2=C1CCC1C2C(O)C(O)C2CC(Nc3ccccc3)CCC21C.Cl (mixture of isomers) [Compound 144] |  |  |  | Calcium (% inhibition at 20 μM) (Jurkat clone E6.1 cells; 20 μM): 13.0%
CCC1(C)CCC2=C1CCC1C2C(O)C(O)C2CC(Nc3cccc(C(F)(F)F)c3)CCC21C.Cl (mixture of isomers) [Compound 145] |  |  |  | Calcium (% inhibition at 20 μM) (Jurkat clone E6.1 cells; 20 μM): −0.2%
CC=C1CCC2C3C(CC[C@]12C)[C@@]1(C)CCC(N)CC1[C@@H](O)[C@@H]3O (stereo partly shown) [Compound 49] | 52 |  |  | 
C=C1CCC2C3C(CC[C@]12C)[C@@]1(C)CCC(N)CC1[C@@H](O)[C@@H]3O (stereo partly shown) [Compound 53] | 24 |  |  | 
C=C1CCC2C3C(CC[C@]12C)[C@@]1(C)CCC(N)CC1[C@@H](O)[C@@H]3O (stereo partly shown) [Compound 54] |  | 16.1 |  | 
CC(F)=C1CCC2C3C(CC[C@]12C)[C@@]1(C)CCC(N)CC1[C@@H](O)[C@@H]3O (stereo partly shown) [Compound 64] | 62 | 14.4 | 6.7 | 
COC(=O)C=C1CCC2C3C(CC[C@]12C)[C@@]1(C)CCC(N)CC1[C@@H](O)[C@@H]3O (stereo partly shown) [Compound 69] |  | 21.2 | 11.2 | 
C[C@]12CC[C@@H](N)CC1[C@@H](O)[C@H](O)[C@@H]1[C@@H]2CC[C@]2(C)C(=O)CC[C@@H]12 (stereo partly drawn) [Compound 70, 3α-amino-6α,7β-dihydroxyandrostan-17-one acetic acid salt] |  |  |  | inhibition at 20 µM (Jurkat clone E6.1 cells; read-out: Calcium (% inhibition at 20 μM), 20 μM): 7%
C[C@]12CCC3C(C1CCC2O)[C@@H](O)[C@H](O)C1CC(N)CC[C@]31C (stereo partly shown) [Compound 72] |  |  | 10.3 | 
C=C1CCC2C3C(CC[C@]12C)[C@@]1(C)CCC(N)CC1[C@@H](OC)[C@@H]3OC (stereo partly shown) [Compound 78] |  | 20.1 | 5.3 | 
CC(F)=C1CCC2C3C(CC[C@]12C)[C@@]1(C)CCC(N)CC1[C@@H](O)[C@@H]3O (stereo partly shown) [Compound 95] | 14 |  |  | 
CCC1CCC2C3C(CC[C@]12C)[C@@]1(C)CCC(N)CC1[C@@H](O)[C@@H]3O (stereo partly shown) [Compound 96] | −9 | 7.8 | 47.9 | 
CCC1CCC2C3C(CC[C@]12C)[C@@]1(C)CCC(N)CC1[C@@H](O)[C@@H]3O (stereo partly shown) [Compound 97] | 40 |  |  | 
C=C1CCC2C3C(CC[C@]12C)[C@@]1(C)CC[C@@H](NCc2ccc(C(C)C)cc2)CC1[C@@H](O)[C@@H]3O (stereo partly shown) [Compound 100] |  | 18.2 | 33.2 | 
C=C1CCC2C3C(O)C(O)C4CC(NCc5cccc(C(F)(F)F)c5)CCC4(C)C3CCC12C.CC(=O)O (stereo not shown) [Compound 102] |  |  |  | Calcium (% inhibition at 20 μM) (Jurkat clone E6.1 cells; 20 μM): 9.5%
C=C1CCC2C3C(O)C(O)C4CC(NCc5cccc([N+](=O)[O-])c5)CCC4(C)C3CCC12C (stereo not shown) [Compound 106] |  |  |  | Calcium (% inhibition at 20 μM) (Jurkat clone E6.1 cells; 20 μM): 8.1%
C=C1CCC2C3C(O)C(O)C4CC(NCc5cccnc5)CCC4(C)C3CCC12C.Cl.Cl (stereo not shown) [Compound 107] |  |  |  | % inhibition of lymphocytes ([1]; 1 mg/kg/day for 4 days): −28%; % inhibition of neutrophils ([1]; 1 mg/kg/day for 4 days): 23%
